This is an account of results in patent US20250059186A1, “Tricyclic Fused Heterocyclic PDE3/4 Dual Inhibitor and Use Thereof” (XIZANG HAISCO PHARMACEUTICAL CO., LTD., priority 2021, published 2025).

Where two headings read alike, the source gives them in different places. Bounds are passed on as bounds.

Data set [1] deals with methacholine-induced bronchoconstriction. The experiment in a line: Inhibitory effect on methacholine-induced bronchoconstriction in guinea pigs (WBP, Penh). It is filed as in vivo, guinea pig. The note with it: male guinea pigs, oral dose of 10 mg/kg, 6 h after drug exposure. The method, then: 2. Study on the Inhibitory Effect of Compounds on Methacholine-Induced Bronchoconstriction in Guinea Pigs
Male guinea pigs were selected as test animals in this study. The drug-treated group was orally administered with RPL554, compound 1 and compound 7 at a dose of 10 mg/kg, respectively, and the control group was administered with an equal dose of solvent. The animals were placed in a WBP instrument aerosol chamber 2 h, 4 h and 6 h after drug exposure. After the animals were adapted, they inhaled 300 μL of […] solution (0.5 mg/mL) by nebulization. After the end of the methacholine (Mch) exposure, Penh values were recorded continuously for 7 minutes. The percentage of bronchoconstriction inhibition by the compounds was calculated based on the Penh values.

A further data set deals with PDE3A recombinant enzyme (Homo sapiens (Human), UniProt Q14432). The data set is described as follows: In vitro assay of inhibitory activity against PDE 3A enzyme (FP, FAM-cAMP). The class given is biochemical. As to the method: 1. In Vitro Assay of the Inhibitory Activity of Compounds Against PDE 3A and PDE 4B2 Enzymes
Chain of PDE3A recombinant enzyme (Q14432 whole entry): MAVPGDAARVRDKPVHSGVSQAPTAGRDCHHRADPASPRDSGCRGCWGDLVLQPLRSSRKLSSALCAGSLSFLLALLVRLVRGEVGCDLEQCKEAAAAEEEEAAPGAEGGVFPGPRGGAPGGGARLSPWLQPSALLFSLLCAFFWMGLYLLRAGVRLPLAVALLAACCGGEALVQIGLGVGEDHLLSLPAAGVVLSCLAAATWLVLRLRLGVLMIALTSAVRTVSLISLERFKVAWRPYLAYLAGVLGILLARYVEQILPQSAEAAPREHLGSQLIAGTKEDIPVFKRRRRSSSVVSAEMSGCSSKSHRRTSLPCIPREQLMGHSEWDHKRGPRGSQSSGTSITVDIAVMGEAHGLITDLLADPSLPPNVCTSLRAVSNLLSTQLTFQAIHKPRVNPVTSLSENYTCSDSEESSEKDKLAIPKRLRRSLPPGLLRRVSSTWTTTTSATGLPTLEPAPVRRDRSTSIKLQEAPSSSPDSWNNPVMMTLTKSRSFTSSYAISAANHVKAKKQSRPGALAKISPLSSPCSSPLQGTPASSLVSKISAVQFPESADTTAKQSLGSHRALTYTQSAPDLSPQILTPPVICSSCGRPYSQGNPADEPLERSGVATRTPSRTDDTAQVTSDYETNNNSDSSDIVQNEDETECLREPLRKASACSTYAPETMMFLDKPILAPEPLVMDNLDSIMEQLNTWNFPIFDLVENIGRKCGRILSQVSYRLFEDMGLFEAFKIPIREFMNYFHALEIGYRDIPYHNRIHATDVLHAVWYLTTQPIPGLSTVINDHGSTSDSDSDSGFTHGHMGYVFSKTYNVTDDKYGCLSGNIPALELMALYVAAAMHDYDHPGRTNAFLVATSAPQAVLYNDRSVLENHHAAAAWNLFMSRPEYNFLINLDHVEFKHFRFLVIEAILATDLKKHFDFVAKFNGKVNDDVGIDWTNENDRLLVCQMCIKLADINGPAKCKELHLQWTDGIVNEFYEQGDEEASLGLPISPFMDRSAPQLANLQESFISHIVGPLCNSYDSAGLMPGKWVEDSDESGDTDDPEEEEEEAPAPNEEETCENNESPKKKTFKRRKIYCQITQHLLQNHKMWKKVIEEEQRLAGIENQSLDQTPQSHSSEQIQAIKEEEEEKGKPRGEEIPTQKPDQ
• Envision 2104 Multilabel Reader (PerkinElmer) • Black 96-well Plate (Cat #6005540, PerkinElmer) • PDE3A Assay Kit (BPS, Cat. 79736), PDE4B2 Assay Kit (BPS, Cat. 60343) • PDE3A recombinant enzyme • PDE4B2 recombinant enzyme • FAM-Cyclic-3′, 5′-AMP • PDE assay buffer • Binding Agent • Binding Agent Diluent (cAMP)
• 1) Prepare FAM cAMP working solution: 20 μL of FAM-Cyclic-3′, 5′-AMP stock was added to 1980 μL of PDE assay buffer. The mixture was added to all wells at 25 μL/well. • 2) Prepare compound solution: the test compounds were dissolved in DMSO to make a 10 mM stock solution. The compound stock solution was diluted in DMSO to a 100× Top Dose diluent. 5 μL of 100× Top Dose diluent was added to 45 μL of PDE assay buffer to prepare a compound Top Dose working solution. Then, the compound working solution was subjected to double dilution with PDE assay buffer containing 10% DMSO to prepare compound working solutions of various concentrations. The compound working solutions were added to compound wells at 5 μL/well. 5 μL of PDE assay buffer containing 10% DMSO was added to each control well. • 3) Prepare PDE enzyme solution: PDE3A and PDE4B2 enzyme stock solutions were diluted to 150 pg/μL and 50 pg/μL, respectively, with PDE assay buffer, and added to all compound wells and Vehicle control wells at 20 μL/well. 20 μL of PDE assay buffer was added to Blank control wells. • 4) React at room temperature for 1 h. • 5) Prepare Binding Agent: 80 μL of binding agent was added to 7920 μL of binding agent diluent, and the mixture was mixed well and added to all wells at 100 μL/well. • 6) React at room temperature for 1 h. • 7) Read FP on Envision. • 8) Calculation formula for original data:
[formula] • FPS=sample FP • FPV=Vehicle control FP • FPB=Blank control FP.
Nonlinear regression analysis of log[dose]-inhibition rate was performed by graphpad and IC50 was calculated.

The subject of data set [2] is guinea pig tracheal rings. The experiment in a line: Experiment on guinea pig tracheal rings (carbachol constriction). The following applies: 10 μM single dose; for OT50 (50% inhibition onset time) / RT50 (50% inhibition recovery time): carbachol-constricted tracheal rings; for inhibition at 10 µM: Cavia porcellus, 6.75 h. As to the method: 3. Experiment on Guinea Pig Tracheal Rings
Experimental method: guinea pig tracheal rings were placed in a specific culture medium (Krebs-Henseleit) and balanced under 1 g tension for 40 minutes; carbachol was added in an amount sufficient to achieve 100% constriction of the tracheal rings; […] contractile tension of the tracheal rings.

For data set [3] the following is noted: in vivo; cited from earlier work.
The test system of another data set is PDE4. The note with it: cited from earlier work.
The conditions of data set [4]: cited from earlier work.
[5] abbreviates: class symbols, read-out: PDE 3A IC50.
Setting [6] is: values in text, read-out: PDE 3 IC50.

Broadly, the IC50 is the point on the concentration scale where inhibition reaches its midpoint. Turning to `[2H]C([2H])([2H])Oc1cc2c(cc1OC)-c1c/c(=N\c3c(C)cc(C)cc3C)n(CCNC(N)=O)c(=O)n1CC2` [Compound 1, (E)-1-(2-(2-(mesitylimino)-10-methoxy-9-(methoxy-d3)-4-oxo-6,7-dihydro-2H-pyrimido[6,1-a]isoquinolin-3(4H)-yl)ethyl)urea], the “Inhibition rate on bronchoconstriction” value in data set [1] was determined as 69%. The IC50 at PDE3A recombinant enzyme (setting [5]) is < 50 nM; at PDE3A recombinant enzyme (setting [6]), 0.15 nM.
As to `COc1cc2c(cc1OC)-c1c/c(=N\c3c(C)cc(C(F)(F)F)cc3C)n(CCNC(N)=O)c(=O)n1CC2` [Compound 2, (E)-1-(2-(2-((2,6-dimethyl-4-(trifluoromethyl)phenyl)imino)-9,10-dimethoxy-4-oxo-6,7-dihydro-2H-pyrimido[6,1-a]isoquinolin-3(4H)-yl)ethyl)urea], at PDE3A recombinant enzyme, the IC50 lay within 50 to 100 nM.
With `COc1cc2c(cc1OC)-c1c/c(=N\c3c(C)cc(C4CC4)cc3C)n(CCNC(N)=O)c(=O)n1CC2` [Compound 3, (E)-1-(2-(2-((4-cyclopropyl-2,6-dimethylphenyl)imino)-9,10-dimethoxy-4-oxo-6,7-dihydro-2H-pyrimido[6,1-a]isoquinolin-3(4H)-yl)ethyl)urea], the IC50 at PDE3A recombinant enzyme (setting [5]) is < 50 nM.
Same read-out and setting: the value for `COc1cc2c(cc1OC)-c1c/c(=N\c3c(C)cc(F)cc3C)n(CCNC(N)=O)c(=O)n1CC2` [Compound 5, (E)-1-(2-(2-((4-fluoro-2,6-dimethylphenyl)imino)-9,10-dimethoxy-4-oxo-6,7-dihydro-2H-pyrimido[6,1-a]isoquinolin-3(4H)-yl)ethyl)urea] was 50 to 100 nM.
Broadly, the inhibition is the share of the control response that was lost under treatment. Read a high inhibition as a response far below the control. Consider `[2H]C([2H])([2H])Oc1cc2c(cc1OC)CCn1c-2c/c(=N\c2c(C)cc(C)cc2C)n(CCNC(N)=O)c1=O` [Compound 7, (E)-1-(2-(2-(mesitylimino)-9-methoxy-10-(methoxy-d3)-4-oxo-6,7-dihydro-2H-pyrimido[6,1-a]isoquinolin-3(4H)-yl)ethyl)urea], for which, in data set [1], the “Inhibition rate on bronchoconstriction” value was 80%. Besides, in data set [2], the “OT50 (50% inhibition onset time)” value is reported as 19.97 min, the “RT50 (50% inhibition recovery time)” value is given as >6.75 h and the inhibition at 10 µM was 75.9%. Moreover, the IC50 on PDE3A recombinant enzyme (setting [5]) was < 50 nM. Further, the IC50 at PDE3A recombinant enzyme (setting [6]) came out at 0.17 nM.
`COc1cc2c(cc1OC)-c1c/c(=N\c3c(C)cc(C)cc3C)n(CCNC(N)=O)c(=O)n1CC2` [RPL554, reference compound]: in data set [3], the plasma clearance result is “high plasma clearance”. For the same compound, the “Inhibition rate on bronchoconstriction” value in data set [1] worked out at 35%. In data set [2], the “OT50 (50% inhibition onset time)” value is listed as 25.51 min, the “RT50 (50% inhibition recovery time)” value is reported as >6.75 h and the inhibition at 10 µM is 56.7%. In the data set with PDE4, the PDE4 inhibitory activity entry is “unsatisfactory”. Further, in data set [4], the solubility entry is “poor solubility”.
